Values quoted from earlier work in patent publication US20240000793A1, “OPHTHALMIC COMPOSITION CONTAINING LEVOFLOXACIN AND KETOROLAC, METHOD FOR THE PREPARATION AND USE THEREOF” (NTC S.R.L., priority 2020, published 2024).

Tests used:
[1] = recent studies
[2] = versus pH

SMILES	Time in the eye at levels above the minimum inhibitory concentration (MIC) [1]	Solubility profile [2]
C[C@H]1COc2c(N3CCN(C)CC3)c(F)cc3c(=O)c(C(=O)O)cn1c23 [Levofloxacin]	more than six hours	
O=C(c1ccccc1)c1ccc2n1CCC2C(=O)O (centres unmarked) [Ketorolac tromethamine]		pH dependent trend, significantly increasing at pH value>6.0
